Reference: the NIST ThermoML archive (doi:10.1016/j.jct.2006.09.016)
± gives the expanded uncertainty stated by the source.

Assays:
[1] = molar heat capacity at constant pressure; settings: 101.33 kPa, Crystal
[2] = Molar enthalpy of transition or fusion; settings: Crystal; DSC
[3] = Crystal; DTA

ON=Cc1ccccn1 [2-pyridinealdoxime]
[1]
Settings | molar heat capacity at constant pressure [J/K/mol]
80.46 K | 51.68 ± 0.57
84.39 K | 53.78 ± 0.59
87.27 K | 55.38 ± 0.6
90.22 K | 57.07 ± 1
93.26 K | 58.78 ± 1
96.22 K | 60.42 ± 1
99.1 K | 61.8 ± 1
102.07 K | 63.16 ± 1.1
105.13 K | 64.65 ± 1.1
108.12 K | 65.95 ± 1.1
111.05 K | 67.4 ± 1.1
113.93 K | 68.69 ± 1.1
116.9 K | 69.94 ± 1.1
119.96 K | 71.33 ± 1.1
122.97 K | 72.93 ± 1.1
125.94 K | 74.14 ± 1.1
128.85 K | 75.41 ± 1.1
131.74 K | 76.56 ± 1.1
134.71 K | 77.89 ± 1.1
137.77 K | 79.05 ± 1.1
140.8 K | 80.49 ± 1.1
143.79 K | 81.65 ± 1.1
146.74 K | 82.72 ± 1.1
149.66 K | 83.99 ± 1.1
152.56 K | 85.27 ± 1.1
155.54 K | 86.71 ± 1.1
158.61 K | 87.83 ± 1.2
161.66 K | 88.91 ± 1.2
164.67 K | 90.3 ± 1.2
167.66 K | 91.7 ± 1.2
170.63 K | 92.91 ± 1.2
173.58 K | 93.88 ± 1.2
176.5 K | 95.23 ± 1.2
179.4 K | 96.67 ± 1.2
182.38 K | 97.92 ± 1.2
185.45 K | 99.23 ± 1.2
188.5 K | 100.67 ± 1.2
191.52 K | 101.97 ± 1.2
194.53 K | 103.16 ± 1.2
197.5 K | 104.64 ± 1.2
200.47 K | 106.06 ± 1.2
203.41 K | 107 ± 1.2
206.33 K | 108.59 ± 1.2
209.23 K | 109.82 ± 1.2
212.22 K | 111.35 ± 1.2
215.29 K | 112.9 ± 1.3
218.35 K | 113.97 ± 1.3
221.38 K | 115.37 ± 1.3
224.38 K | 117.31 ± 1.3
227.37 K | 118.7 ± 1.3
230.3 K | 120 ± 1.3
233.32 K | 121.77 ± 1.3
236.35 K | 123.52 ± 1.3
239.26 K | 124.25 ± 1.3
242.25 K | 125.83 ± 1.3
245.32 K | 127.09 ± 1.3
248.39 K | 128.4 ± 1.3
251.44 K | 129.85 ± 1.3
254.47 K | 130.36 ± 1.3
257.5 K | 131.52 ± 1.3
260.5 K | 132.74 ± 1.3
263.49 K | 134.49 ± 1.3
266.46 K | 136.14 ± 1.3
269.41 K | 137.72 ± 1.4
272.35 K | 139.5 ± 1.4
275.26 K | 140.58 ± 1.4
278.17 K | 142.55 ± 1.4
281.06 K | 143.7 ± 1.4
284.01 K | 145.45 ± 1.4
287.04 K | 147.06 ± 1.4
290.04 K | 148.68 ± 1.4
293.01 K | 149.59 ± 1.4
295.98 K | 150.99 ± 1.4
298.93 K | 152.1 ± 1.4
301.87 K | 153.86 ± 1.4
304.78 K | 154.72 ± 1.4
307.69 K | 155.91 ± 1.4
310.57 K | 157.91 ± 1.4
313.44 K | 159.33 ± 1.4
316.29 K | 160.28 ± 1.4
319.11 K | 161.83 ± 1.4
321.92 K | 163.28 ± 1.5
324.8 K | 164.64 ± 1.5
327.74 K | 165.88 ± 1.5
330.66 K | 167.18 ± 1.5
333.57 K | 168.11 ± 1.5
336.45 K | 169.62 ± 1.5
339.31 K | 171.01 ± 1.5
342.16 K | 172.57 ± 1.5
344.98 K | 173.51 ± 1.5
347.78 K | 174.14 ± 1.5
350.55 K | 175.82 ± 1.5
353.29 K | 176.47 ± 1.5
355.96 K | 177.08 ± 1.5
358.4 K | 178.59 ± 1.5
360.61 K | 179.15 ± 1.5
363.31 K | 180.38 ± 1.5
365.84 K | 181.56 ± 1.5
367.88 K | 182.97 ± 1.5
370.49 K | 183.67 ± 1.5
372.97 K | 184.42 ± 1.5

Settings | Molar enthalpy of transition or fusion [kcal/mol] | Normal melting temperature [°C]
[2] | 4.78 ± 0.143 | –
[3] | – | 113.08 ± 0.5
